Measured values from the supplement of paper PMC13207355.
Where a name gives a salt, the structure may show the parent alone.

Columns and labels:
Details in all cases: exposure time: 72 h
E13 [1] = patient-derived glioblastoma stem cells of classical subtype; assay: surviving fraction (nuclei count normalised to DMSO); higher = more cells surviving (less toxic)
E31 [2] = patient-derived glioblastoma stem cells of proneural subtype; assay: as above
FT3469 [3] = normal neural stem cell line; assay: as above
E34 [4] = patient-derived glioblastoma stem cells of proneural subtype; assay: as above
E57 [5] = patient-derived glioblastoma stem cells of mesenchymal subtype; assay: as above
E21 [6] = patient-derived glioblastoma stem cells of mesenchymal subtype; assay: as above
E28 [7] = patient-derived glioblastoma stem cells of classical subtype; assay: as above
E13 [8] = assay: phenotypic distance (Euclidean, principal components) from DMSO controls (arbitrary units); higher = stronger morphological change
E31 [9] = assay: as above
FT3469 [10] = assay: as above
E34 [11] = assay: as above
E57 [12] = assay: as above
E21 [13] = assay: as above
E28 [14] = assay: as above
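Throughout, for phenotypic distance (Euclidean, principal components) from DMSO controls: cell Painting imaging in 384-well plates, CellProfiler features reduced to at least 20 principal components, Euclidean distance versus same-plate DMSO vehicle wells (0.1% v/v), median over six images per well.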
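Throughout, for surviving fraction (nuclei count normalised to DMSO): nuclei counted by high-content imaging of Hoechst-stained cells in laminin-coated 384-well plates, relative to 0.1% DMSO vehicle wells, with staurosporine as cell-death control.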

CC(C)C[C@H]1C(=O)N2CCC[C@H]2[C@]2(O)O[C@](NC(=O)[C@@H]3C=C4c5cccc6[nH]c(Br)c(c56)C[C@H]4N(C)C3)(C(C)C)C(=O)N12 [Bromocryptine mesylate]
Details	phenotypic distance	surviving fraction
E13 [1], 4.1 nM	–	0.907
E13 [1], 12.3 nM	–	0.944
E13 [1], 37 nM	–	0.958
E13 [1], 111.1 nM	–	0.816
E13 [1], 333.3 nM	–	0.981
E13 [1], 1000 nM	–	0.976
E13 [1], 3000 nM	–	0.8
E13 [8], 4.1 nM	0.797	–
E13 [8], 12.3 nM	0.698	–
E13 [8], 37 nM	0.44	–
E13 [8], 111.1 nM	1.07	–
E13 [8], 333.3 nM	0.683	–
E13 [8], 1000 nM	1.03	–
E13 [8], 3000 nM	1.57	–
E21 [6], 4.1 nM	–	1.06
E21 [6], 12.3 nM	–	1.02
E21 [6], 37 nM	–	1.05
E21 [6], 111.1 nM	–	0.989
E21 [6], 333.3 nM	–	1
E21 [6], 1000 nM	–	0.969
E21 [6], 3000 nM	–	0.967
E21 [13], 4.1 nM	0.67	–
E21 [13], 12.3 nM	0.901	–
E21 [13], 37 nM	0.972	–
E21 [13], 111.1 nM	0.667	–
E21 [13], 333.3 nM	0.353	–
E21 [13], 1000 nM	0.811	–
E21 [13], 3000 nM	0.593	–
E28 [7], 4.1 nM	–	1.1
E28 [7], 12.3 nM	–	1.07
E28 [7], 37 nM	–	1.07
E28 [7], 111.1 nM	–	1.12
E28 [7], 333.3 nM	–	0.978
E28 [7], 1000 nM	–	1.05
E28 [7], 3000 nM	–	0.779
E28 [14], 4.1 nM	1.04	–
E28 [14], 12.3 nM	0.531	–
E28 [14], 37 nM	0.575	–
E28 [14], 111.1 nM	0.661	–
E28 [14], 333.3 nM	0.642	–
E28 [14], 1000 nM	0.784	–
E28 [14], 3000 nM	1.28	–
E31 [2], 4.1 nM	–	1.07
E31 [2], 12.3 nM	–	1.06
E31 [2], 37 nM	–	0.944
E31 [2], 111.1 nM	–	1.15
E31 [2], 333.3 nM	–	1.03
E31 [2], 1000 nM	–	1.13
E31 [2], 3000 nM	–	0.897
E31 [9], 4.1 nM	0.381	–
E31 [9], 12.3 nM	0.548	–
E31 [9], 37 nM	0.581	–
E31 [9], 111.1 nM	0.404	–
E31 [9], 333.3 nM	0.658	–
E31 [9], 1000 nM	0.705	–
E31 [9], 3000 nM	0.828	–
E34 [4], 4.1 nM	–	0.907
E34 [4], 12.3 nM	–	0.846
E34 [4], 37 nM	–	0.967
E34 [4], 111.1 nM	–	1.16
E34 [4], 333.3 nM	–	0.879
E34 [4], 1000 nM	–	1.05
E34 [4], 3000 nM	–	0.727
E34 [11], 4.1 nM	0.67	–
E34 [11], 12.3 nM	0.914	–
E34 [11], 37 nM	0.493	–
E34 [11], 111.1 nM	0.843	–
E34 [11], 333.3 nM	1.2	–
E34 [11], 1000 nM	0.94	–
E34 [11], 3000 nM	1.28	–
E57 [5], 4.1 nM	–	0.932
E57 [5], 12.3 nM	–	1.13
E57 [5], 37 nM	–	0.893
E57 [5], 111.1 nM	–	1.05
E57 [5], 333.3 nM	–	1.01
E57 [5], 1000 nM	–	0.91
E57 [5], 3000 nM	–	0.777
E57 [12], 4.1 nM	0.496	–
E57 [12], 12.3 nM	0.874	–
E57 [12], 37 nM	0.757	–
E57 [12], 111.1 nM	5.36	–
E57 [12], 333.3 nM	0.51	–
E57 [12], 1000 nM	0.474	–
E57 [12], 3000 nM	1.74	–
FT3469 [3], 4.1 nM	–	0.76
FT3469 [3], 12.3 nM	–	0.909
FT3469 [3], 37 nM	–	1.01
FT3469 [3], 111.1 nM	–	0.932
FT3469 [3], 333.3 nM	–	0.984
FT3469 [3], 1000 nM	–	1.01
FT3469 [3], 3000 nM	–	0.912
FT3469 [10], 4.1 nM	1.05	–
FT3469 [10], 12.3 nM	1.08	–
FT3469 [10], 37 nM	0.956	–
FT3469 [10], 111.1 nM	0.691	–
FT3469 [10], 333.3 nM	0.43	–
FT3469 [10], 1000 nM	0.442	–
FT3469 [10], 3000 nM	0.73	–

Cc1cc(CN2CCN(c3c(Br)cnc4nc(-c5ccc(N6CCN(C)CC6)cc5)[nH]c34)CC2)no1
Details	phenotypic distance	surviving fraction
E13 [1], 4.1 nM	–	0.995
E13 [1], 12.3 nM	–	0.966
E13 [1], 37 nM	–	0.963
E13 [1], 111.1 nM	–	0.91
E13 [1], 333.3 nM	–	0.676
E13 [1], 1000 nM	–	0.528
E13 [1], 3000 nM	–	0.0986
E13 [8], 4.1 nM	0.33	–
E13 [8], 12.3 nM	0.336	–
E13 [8], 37 nM	0.51	–
E13 [8], 111.1 nM	0.456	–
E13 [8], 333.3 nM	1.86	–
E13 [8], 1000 nM	4.59	–
E13 [8], 3000 nM	13.4	–
E21 [6], 4.1 nM	–	0.936
E21 [6], 12.3 nM	–	0.864
E21 [6], 37 nM	–	0.9
E21 [6], 111.1 nM	–	0.917
E21 [6], 333.3 nM	–	0.6
E21 [6], 1000 nM	–	0.387
E21 [6], 3000 nM	–	0.0348
E21 [13], 4.1 nM	1.03	–
E21 [13], 12.3 nM	0.842	–
E21 [13], 37 nM	0.688	–
E21 [13], 111.1 nM	0.989	–
E21 [13], 333.3 nM	2.77	–
E21 [13], 1000 nM	5.77	–
E21 [13], 3000 nM	7.03	–
E28 [7], 4.1 nM	–	1.15
E28 [7], 12.3 nM	–	0.888
E28 [7], 37 nM	–	1.09
E28 [7], 111.1 nM	–	0.916
E28 [7], 333.3 nM	–	0.806
E28 [7], 1000 nM	–	0.392
E28 [7], 3000 nM	–	0.163
E28 [14], 4.1 nM	1.13	–
E28 [14], 12.3 nM	1.52	–
E28 [14], 37 nM	1.01	–
E28 [14], 111.1 nM	1.29	–
E28 [14], 333.3 nM	1.23	–
E28 [14], 1000 nM	2.97	–
E28 [14], 3000 nM	5.6	–
E31 [2], 4.1 nM	–	1.02
E31 [2], 12.3 nM	–	0.782
E31 [2], 37 nM	–	0.994
E31 [2], 111.1 nM	–	0.867
E31 [2], 333.3 nM	–	0.511
E31 [2], 1000 nM	–	0.334
E31 [2], 3000 nM	–	0.00629
E31 [9], 4.1 nM	0.99	–
E31 [9], 12.3 nM	1.9	–
E31 [9], 37 nM	1.97	–
E31 [9], 111.1 nM	0.784	–
E31 [9], 333.3 nM	1.62	–
E31 [9], 1000 nM	3.36	–
E31 [9], 3000 nM	10.2	–
E34 [4], 4.1 nM	–	0.839
E34 [4], 12.3 nM	–	0.842
E34 [4], 37 nM	–	1.09
E34 [4], 111.1 nM	–	0.872
E34 [4], 333.3 nM	–	0.827
E34 [4], 1000 nM	–	0.618
E34 [4], 3000 nM	–	0.26
E34 [11], 4.1 nM	1.02	–
E34 [11], 12.3 nM	1.13	–
E34 [11], 37 nM	0.858	–
E34 [11], 111.1 nM	0.728	–
E34 [11], 333.3 nM	2.67	–
E34 [11], 1000 nM	2.84	–
E34 [11], 3000 nM	8.59	–
E57 [5], 4.1 nM	–	0.974
E57 [5], 12.3 nM	–	0.888
E57 [5], 37 nM	–	0.906
E57 [5], 111.1 nM	–	0.871
E57 [5], 333.3 nM	–	0.651
E57 [5], 1000 nM	–	0.325
E57 [5], 3000 nM	–	0.0382
E57 [12], 4.1 nM	0.499	–
E57 [12], 12.3 nM	0.684	–
E57 [12], 37 nM	0.82	–
E57 [12], 111.1 nM	1.16	–
E57 [12], 333.3 nM	5.64	–
E57 [12], 1000 nM	8.26	–
E57 [12], 3000 nM	9.56	–
FT3469 [3], 4.1 nM	–	0.662
FT3469 [3], 12.3 nM	–	0.758
FT3469 [3], 37 nM	–	0.843
FT3469 [3], 111.1 nM	–	0.737
FT3469 [3], 333.3 nM	–	0.705
FT3469 [3], 1000 nM	–	0.676
FT3469 [3], 3000 nM	–	0.37
FT3469 [10], 4.1 nM	1.38	–
FT3469 [10], 12.3 nM	0.929	–
FT3469 [10], 37 nM	1.76	–
FT3469 [10], 111.1 nM	1.44	–
FT3469 [10], 333.3 nM	1.88	–
FT3469 [10], 1000 nM	2.37	–
FT3469 [10], 3000 nM	9.55	–
